This note sets out measurements from a melting point compilation (Tetko et al.; mined from patent text by program, amines drawn as free bases though some values may be those of a salt).

The melting point is the temperature of the solid-liquid transition.

`c1ccc(-c2c[nH]c3ccccc23)cc1`: the melting point is 148 to 149 °C.
`COc1cc(OC)c(-c2cc3ccccc3s2)cc1C=O` had a melting point of 134 to 136 °C.
`O=C(Nc1ccccc1)c1cccc(Nc2cc(Cl)cc(Cl)c2)c1`: the melting point is 164 to 165 °C.
In the case of `CCNC(=O)C1(C/C=C/c2ccccc2)c2ccccc2-c2ccccc21` it was 144 °C; in that of `CCCCCCCCCCCCCCCCCc1nnc(CO)n1-c1sc(CC)cc1C(=O)c1ccc(C)cc1`, 68 to 69 °C.
Next, `Cc1nn(-c2c(Cl)cc(C(F)(F)F)cc2Cl)nc1C=NC(C#N)=C(N)C#N`: 238 to 239 °C; `CCOC(=O)c1c(S(C)(=O)=O)nc2sccn12`: 158 to 161 °C; `CCN1CCN(CC/C=C/c2ccc3c(Nc4ccc(Sc5nccn5C)c(Cl)c4)c(C#N)cnc3c2)CC1`: 194 to 204 °C.
`O=C(O)COc1cccc(CSc2nc(-c3ccccc3)c(-c3ccccc3)[nH]2)c1` yielded a melting point of 233 to 235 °C.
In the case of `CSC(CC(=O)c1cc(Cl)c(C)c(Cl)c1)C(=O)O` (centres undefined) it was 158 to 160 °C.
In the case of `CS(=O)(=O)c1ccc(-c2cnn(-c3cccs3)c(=O)c2-c2ccc(F)cc2)cc1` it was 215 to 217 °C.
`O=c1oc(-c2cccc(C(F)(F)F)c2)ns1` showed a melting point of 85 to 86.5 °C.
In the case of `CC(C)(Cc1ccc(Cl)cc1)C(=O)Cn1cncn1` it was 127 °C; in that of `COc1ccccc1N1CCN(CCCCN2CCN(c3ccccc3)C2=O)CC1`, 94 to 95 °C; in that of `N#Cc1cccc(-c2nc(=O)c3ccccc3s2)c1`, 200 °C.
Compound `NS(=O)(=O)c1cc2c(cc1Cl)NCN(CCO)S2(=O)=O` had a melting point of 199 to 203 °C.
`COc1ccc(Cn2c(=S)[nH]c(=S)c3[nH]cnc32)cc1OC1CCCC1` showed a melting point of 215 to 218 °C.
In the case of `O=C(Nc1cccc(NC(=O)c2ccc(O)cc2)c1)c1ccc(O)cc1` it was 250 °C; in that of `COc1ccc(C(=O)Cc2cc(OC)ccc2OC)c(Br)c1`, 76 to 79 °C; in that of `CC1(C)CC(=O)c2c(Sc3ncccn3)sc(-c3cc[nH]n3)c2C1`, 245 °C.
`Nc1ncnc2[nH]c(=S)sc12` returned a melting point of over 370 °C.
Take `O=C(O)c1cccc2ccc3c4ccccc4[nH]c3c12`: the melting point is 343 °C.
Consider `CCCCCCCCCCOc1ccc(C(=O)Oc2ccc(OC(=O)[C@@H]3O[C@@H]3CCC)cc2)cc1Cl`, for which the melting point amounted to 66.4 °C.
The compound `CN(c1ccccc1)c1cc(NCc2ccco2)c(C(=O)O)cc1S(N)(=O)=O` displayed a melting point of 145 °C.
Take `COC(=O)c1cc(C(=O)O)cc(C(=O)OC)c1C(=O)OC`: the melting point was 143 to 144 °C.
The compound `O=C(Nc1cc(Cl)c([N+](=O)[O-])cc1O)c1ccc(Cl)c(Cl)c1` showed a melting point of 263 to 265 °C.
`Cc1cc(SC2=C(O)CC(CCc3ccsc3CO)(C(C)C)OC2=O)c(C(C)(C)C)cc1N` (centres undefined) showed a melting point of 107 to 115 °C.
The compound `CC(=O)OC1CSC(Oc2cccc(-c3ccc(C)o3)c2)C(OC(C)=O)C1OC(C)=O` (centres undefined) came in with a melting point of 132 °C.
The compound `Cn1cc(-c2ccccc2)c(=O)c(-c2cccc(C(=O)O)c2)c1` returned a melting point of 265 to 267 °C.
`O=C(O)c1ccccc1Oc1ccc(F)cc1` had a melting point of 146 to 147 °C.
`O=C(CC(C(=O)O)c1ccccc1)Nc1cccc(/C=C/c2nc(C3CCC3)cs2)c1` (centres undefined) yielded a melting point of 202 to 203 °C.
With `CCCCn1cc(C(=O)O)c(=O)c2oc3ccc(Cl)cc3c(=O)c21`, the melting point was in the range of 271 to 273 °C.
`COc1ccc2cc(OCc3ccccc3)c(C(=O)OCc3ccccc3)cc2c1` displayed a melting point of 96 to 98 °C.
`CCCC1=C(C#N)C(c2ccccc2Cl)c2c(n[nH]c2C(C)(C)C)N1` (centres undefined) yielded a melting point of over 270 °C.
For `CCOC(=O)[C@H](Cc1ccc(C(F)(F)F)cc1)[C@@H](O)c1ccncc1` (racemic), the melting point was in the range of 78 to 80 °C.
Take `O=C(NCc1cc(C(F)(F)F)cc(C(F)(F)F)c1)c1c(-c2ccccc2)c2ccccc2[nH]c1=O`: the melting point lay within 251 to 252 °C.
Next, `COc1ccc(CC2C3=C(CCCC3)CCN2C(=O)C2CCC2)cc1` (centres undefined): 89 to 91 °C.
`CCCCC1Oc2cc(C(=O)OC)ccc2NC1=O` (centres undefined): the melting point was 139 to 140 °C.
As to `Cc1ccc(-n2cccc2-c2ccc(S(C)(=O)=O)cc2)cc1C`, the melting point was 134 to 137 °C.
Regarding `CC1c2cccc3c2N(CC3)c2ccccc2N1CC#N` (centres undefined), the melting point was in the range of 148 to 150 °C.
As to `CCOC(=O)c1cnn(-c2ccc(Cl)cc2Cl)c1C(F)(F)F`, the melting point is 81 to 83 °C.
In the case of `CC(C)c1nc(-c2cccnc2)c[nH]c1=O` it was 200 to 202 °C.
Regarding `O=C1OCCC12Sc1ccc([N+](=O)[O-])cc1C2=O` (centres undefined), the melting point was in the range of 190 to 194 °C.
Next, `CC(=O)OCC(=O)C12OCOC1CC1C3CCC4=CC(=O)CCC4(C)C3(F)C(O)CC12C` (centres undefined): 264 to 266 °C; `CN(C)C(=O)CCCCC(=O)O`: 80 °C.
With `COc1ccccc1NC(=O)Nc1ncnc(Nc2ccccc2-c2ccccc2)n1`, the melting point amounted to 219 °C.
As for `O=C1C2=C(CCCC2)C(=O)C1=C1C=CNC=C1`, the melting point was 258 to 261 °C.
Next, `COc1cccc(Cl)c1-c1cc2c(c3c1C(=O)NC3=O)c1cc(O)ccc1n2CCCN1C[C@@H](C)N[C@@H](C)C1`: 199 to 202 °C; `CCCCC[C@H]1CC[C@H](c2ccc(-c3ccc(C#N)cc3)cc2)CC1`: 93 °C.
In turn, `Cc1cn(S(C)(=O)=O)c2c1C(=O)CC(c1ccccc1Cl)C2` (centres undefined) had a melting point of 167 to 168 °C.
On to `COc1ccccc1-n1c(=O)[nH]c2c(C(N)=O)nc(NCCO)nc21`, for which the melting point was 157 to 160 °C.
Take `CCc1nc2c(N)nc3ccccc3c2n1CC#Cc1cccc([N+](=O)[O-])c1`: the melting point fell in the range of 224 to 243 °C.
Turning to `O=[N+]([O-])c1ccc(-c2cnc3nc(SCc4ccccc4)nn3c2)cc1`, the melting point was in the range of 195 to 199 °C.
As to `O=C(O)Cc1ccc2c(c1)C(c1ccccc1)C(=O)O2` (centres undefined), the melting point is 136 °C.
`O=S1(=O)CCN(c2nc(Cl)nc3c(Cl)ncnc23)CC1` displayed a melting point of 270 to 273 °C.
In turn, `CN(C)c1ccc(C(=O)C=Cc2ccc([N+](=O)[O-])cc2)cc1` registered a melting point of 198 to 200 °C.
In the case of `CCC(=O)c1c(-c2ccncc2)[nH]c(-c2ccncc2)c1CC` it was 209 to 211 °C; in that of `O=C(O)c1cccc([N+](=O)[O-])c1SCc1ccccc1`, 152 to 153 °C; in that of `CCc1nc2c(O)c(CCC(O)c3ccccc3)c(C(=O)N(C)C)cc2n1C` (centres undefined), 121 to 124 °C.
Turning to `NCc1c(Nc2ccccc2)cccc1-c1ccccc1`, the melting point lay in the range of 115 to 116 °C.
Regarding `CCOC(=O)c1cn(-c2ccc(F)c(NC(=O)OC(C)(C)C)c2F)c2nc(Cl)c(F)cc2c1=O`, the melting point fell in the range of 128 to 131 °C.
Compound `C=C(OCC1(N2CCN(C(=O)OC(C)(C)C)CC2)Cc2ccccc2C1)c1cc(C)cc(C)c1` displayed a melting point of 128 °C.
Next, `O=Cc1c(-c2cccnc2)[nH]c2ccccc12`: 148 to 150 °C; `Cc1ccccc1[C@@H](CCC(=O)O)Oc1cc(OCc2ccsc2)ccc1[N+](=O)[O-]`: 130 to 131 °C.
